From BindingDB's records for doi:10.1074/jbc.M114.571216 (Dalhousie University, 2014)

What was measured:
[1] = target: T1, Oxysterol-binding protein 2 (Homo sapiens, UniProt Q969R2); assay: Sterol-Binding Assay; conditions: pH 7.4; 20 °C
T1 sequence (Q969R2 whole entry): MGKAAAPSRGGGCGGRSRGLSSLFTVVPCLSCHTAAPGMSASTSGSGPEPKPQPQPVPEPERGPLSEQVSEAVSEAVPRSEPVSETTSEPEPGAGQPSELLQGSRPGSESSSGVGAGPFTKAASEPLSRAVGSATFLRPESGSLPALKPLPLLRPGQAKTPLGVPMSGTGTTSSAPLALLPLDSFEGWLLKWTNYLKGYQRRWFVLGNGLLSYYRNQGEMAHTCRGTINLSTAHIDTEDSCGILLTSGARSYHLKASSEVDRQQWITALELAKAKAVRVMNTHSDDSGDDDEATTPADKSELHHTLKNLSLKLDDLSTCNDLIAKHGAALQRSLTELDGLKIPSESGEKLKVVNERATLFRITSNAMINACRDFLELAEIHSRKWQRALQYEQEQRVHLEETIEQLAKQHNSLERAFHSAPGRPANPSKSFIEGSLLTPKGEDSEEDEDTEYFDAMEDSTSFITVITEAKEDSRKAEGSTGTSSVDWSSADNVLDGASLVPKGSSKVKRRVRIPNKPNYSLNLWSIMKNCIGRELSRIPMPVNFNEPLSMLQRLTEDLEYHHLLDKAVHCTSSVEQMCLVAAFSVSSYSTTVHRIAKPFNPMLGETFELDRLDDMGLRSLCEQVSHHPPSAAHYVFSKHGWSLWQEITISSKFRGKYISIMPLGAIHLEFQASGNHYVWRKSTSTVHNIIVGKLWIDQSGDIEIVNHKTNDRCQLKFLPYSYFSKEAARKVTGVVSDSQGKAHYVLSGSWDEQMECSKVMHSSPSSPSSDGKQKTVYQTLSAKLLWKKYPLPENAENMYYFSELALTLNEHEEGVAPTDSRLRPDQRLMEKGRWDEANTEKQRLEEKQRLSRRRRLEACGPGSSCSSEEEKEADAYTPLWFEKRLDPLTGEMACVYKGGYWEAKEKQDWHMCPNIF
Protocol: (§1) Recombinant OSBP, ORP4L, or ORP4S (8 pmol) was incubated in 75 μl of binding buffer (10 mM HEPES (pH 7.4), 150 mM KCl, 2% (w/v) polyvinyl alcohol) containing radioactive sterols (with or without a 40-fold excess of unlabeled sterol). After 2 h at 20 °C, a 25-μl slurry of Talon resin (1:1, v/v) was added and mixed for 10 min. Talon resin and bound protein were washed three times with 300 μl of 10 mM HEPES (pH 7.4) and 150 mM KCl and sedimented by brief centrifugation. Bound proteins were eluted from the resin with 150 mM imidazole (pH 7.4), the resin was sedimented by centrifugation, and radioactivity bound to protein in the supernatant was measured by liquid scintillation counting.

[2] = target: T2, Oxysterol-binding protein 2 [1-181,275-916] (Homo sapiens, UniProt Q969R2); assay: Sterol-Binding Assay; conditions: pH 7.4; 20 °C
T2 construct: 1-181,275-916
T2 sequence (Q969R2 whole entry): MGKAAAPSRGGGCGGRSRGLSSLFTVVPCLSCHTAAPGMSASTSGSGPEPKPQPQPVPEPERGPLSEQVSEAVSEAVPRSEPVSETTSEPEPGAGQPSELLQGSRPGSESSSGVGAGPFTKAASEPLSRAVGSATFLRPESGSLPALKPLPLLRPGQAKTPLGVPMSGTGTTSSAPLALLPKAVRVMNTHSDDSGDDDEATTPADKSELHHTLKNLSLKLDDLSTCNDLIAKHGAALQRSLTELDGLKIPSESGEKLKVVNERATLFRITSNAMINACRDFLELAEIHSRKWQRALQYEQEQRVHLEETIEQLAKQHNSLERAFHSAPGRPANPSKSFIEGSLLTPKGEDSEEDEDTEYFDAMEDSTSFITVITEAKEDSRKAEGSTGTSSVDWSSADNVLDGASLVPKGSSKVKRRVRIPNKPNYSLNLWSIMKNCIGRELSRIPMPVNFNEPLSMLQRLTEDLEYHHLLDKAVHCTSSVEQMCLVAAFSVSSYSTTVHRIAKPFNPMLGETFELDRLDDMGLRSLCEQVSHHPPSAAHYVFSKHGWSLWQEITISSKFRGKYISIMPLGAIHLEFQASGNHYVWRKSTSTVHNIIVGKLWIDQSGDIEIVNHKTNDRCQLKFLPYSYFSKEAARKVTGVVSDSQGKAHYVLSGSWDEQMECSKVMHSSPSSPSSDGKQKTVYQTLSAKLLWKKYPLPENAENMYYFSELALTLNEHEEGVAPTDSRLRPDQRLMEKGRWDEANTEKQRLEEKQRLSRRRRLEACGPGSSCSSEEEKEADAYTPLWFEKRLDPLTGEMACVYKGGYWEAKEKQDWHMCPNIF
Protocol: as §1

Compound	Kd [1] [nM]	Kd [2] [nM]
CC(C)CCC[C@@H](C)[C@H]1CC[C@H]2[C@@H]3CC=C4C[C@@H](O)CC[C@]4(C)[C@H]3CC[C@]12C [(1S,2R,5S,10S,11S,14R,15R)-2,15-dimethyl-14-[(2R)-6-methylheptan-2-yl]tetracyclo[8.7.0.0^{2,7}.0^{11,15}]heptadec-7-en-5-ol]	68	60
C[C@H](CCCC(C)(C)O)[C@H]1CC[C@H]2[C@@H]3CC=C4C[C@@H](O)CC[C@]4(C)[C@H]3CC[C@]12C [(1S,2R,5S,10S,11S,14R,15R)-14-[(2R)-6-hydroxy-6-methylheptan-2-yl]-2,15-dimethyltetracyclo[8.7.0.0^{2,7}.0^{11,15}]heptadec-7-en-5-ol]	17	23
